Laboratory results as given in patent publication US20100204109A1, “USE OF C-TYPE NATRIURETIC PEPTIDE, ALONE OR IN COMBINATION WITH NEUROPEPTIDE AF, AS A THERAPEUTIC AGENT” (priority 2007, published 2010).
Ends that are not written are not given here.

Legend:
[1] = system: spleen cells of Ovalbumin-immunized Balb/c mice; experiment: Th1/Th2 cytokine profiling assay; format: cell-based, mouse; conditions: 10 micrograms per ml; Ovalbumin restimulation; 72 hours supernatant
Text: Results from Th1/Th2 Cytokine assay:

HCMV strain AD169 = experiment: HCMV plaque formation assay in MRC-5 cells; conditions: for inhibition of HCMV plaque formation as compared to the virus control experiment: 10 micrograms per ml, MRC-5 cells, 7-10 days
[2] = system: hepatitis B virus (HBV) ayw strain; experiment: HBV experimental assay system, HepG2-2.2.15, secreted HBV DNA by TaqMan PCR; format: cell-based; conditions: 10 micrograms per ml, six days, HBV DNA in supernatant
HUVEC = experiment: Endothelial tube formation assay; format: cell-based, human; conditions: 10 micrograms per ml, 20 hours, average tubule length
Text: Positive control was vehicle only. […] Raw data were expressed as average tubule lenghs in pixels±standard deviation.

| Compound | inhibition of HCMV plaque formation as compared to the virus control experiment (HCMV strain AD169) | inhibition of HBV replication as compared to the virus control infection [2] | inhibition of the tube formation of human endothelial cells (HUVEC) | antiviral activity of positive control compounds (HIV-1IIIB) | other results |
| --- | --- | --- | --- | --- | --- |
| Ala-Gly-Glu-Gly-Leu-Asn-Ser-Gln-Phe-Trp-Ser-Leu-Ala-Ala-Pro-Gln-Arg-Phe-NH2 (AGEGLNSQFWSLAAPQRF-NH2) [Peptide 2] | did not inhibit | 42.6% | did not inhibit | – | IFNγ spleen cells; TH1 response (% of control) [1]: 84.8 % of control; IL-2 spleen cells (% of control) [1]: 0.0 % of control; IL-4 spleen cells; TH2 response (% of control) [1]: 0.0 % of control; IL-5 spleen cells; TH2 response (% of control) [1]: 52.2 % of control; TNF-a spleen cells; TH1 response (% of control) [1]: 92.1 % of control |
| CC(C)(C)NC(=O)[C@@H]1CN(Cc2cccnc2)CCN1C[C@@H](O)C[C@@H](Cc1ccccc1)C(=O)N[C@H]1c2ccccc2C[C@H]1O [indinavir] | – | – | – | expected levels of antiviral activity | – |
| Cc1cn([C@H]2C[C@H](N=[N+]=[N-])[C@@H](CO)O2)c(=O)[nH]c1=O [AZT] | – | – | – | expected levels of antiviral activity | – |
| Nc1nc(O)c2ncn(COC(CO)CO)c2n1 [Ganciclovir, reference compound] | – | – | – | – | antiviral activity of positive control compound (HCMV strain AD169; positive control, HCMV AD169 in MRC-5 cells): expected levels of antiviral activity |
| Asp-Leu-Arg-Val-Asp-Thr-Lys-Ser-Arg-Ala-Ala-Trp-Ala-Arg-Leu-Leu-Gln-Glu-His-Pro-Asn-Ala-Arg-Lys-Tyr-Lys-Gly-Ala-Asn-Lys-Lys-Gly-Leu-Ser-Lys-Gly-Cys-Phe-Gly-Leu-Lys-Leu-Asp-Arg-Ile-Gly-Ser-Met-Ser-Gly-Leu-Gly-Cys-OH (DLRVDTKSRAAWARLLQEHPNARKYKGANKKGLSKGCFGLKLDRIGSMSGLGC-OH; cysteine pairing not given here) [Peptide 1] | did not inhibit | 65.7% | 34% | – | – |
